Test system: ASPC-1 tumor
Experiment: In vivo efficacy of ^225Ac therapy
Details: ASPC-1 tumor-bearing mice; for tumor inhibition compared to the vehicle group: single dose of 18, 37 or 74 KBq; for dose sufficient to achieve the maximal effect: single dose
Protocol: In vivo efficacy of the ^177Lu labeled complexes and ^225Ac labeled complexes of the present application was evaluated in ASPC-1 tumor-bearing mice. For ^177Lu therapy study, animals in each group were dosed with vehicle or 0.6 mCi activity of the radiolabeled complexes at Day 1 and Day 5, respectively. For ^225Ac therapy studies, animals in each group were administered with a single dose of vehicle, 18, 37 or 74 KBq activity of the radiolabeled complexes, respectively.
The tumor volume (V) was determined according to the equation (V=[…]×L×W×H) at different time points, where L is the longest axis and W is the perpendicular axis to L, and H is the perpendicular axis to L and W plane. Endpoint (sacrifice) criteria were defined as either when the tumor volume exceeded 1.5 cm^3, or 20% body weight loss.

Compound | tumor inhibition compared to the vehicle group | dose sufficient to achieve the maximal effect [KBq]
COc1cccc(OC)c1-c1cc(C(=O)NC2(C(=O)O)C3CC4CC(C3)CC2C4)nn1-c1ccc(NC(=O)CCCN(C)CCCN(C)C(=O)CN2CCN(CC(=O)[O-])CCN(CC(=O)[O-])CCN(CC(=O)[O-])CC2)cc1C(C)C.[225Ac+3] (stereo not shown) [^225Ac—I-5] | significant tumor inhibition | 37
COc1cccc(OC)c1-c1cc(C(=O)NC2(C(=O)O)C3CC4CC(C3)CC2C4)nn1-c1ccc(OCCCN(C)CCCN(C)C(=O)CN2CCN(CC(=O)[O-])CCN(CC(=O)[O-])CCN(CC(=O)[O-])CC2)cc1C(C)C.[225Ac+3] (stereo not shown) [^225Ac—I-7] | significant tumor inhibition | 37
